Earlier results, collected in patent US8778840B2, “Soluble liquid formulations of quinclorac ammonium salts” (BASF SE, priority 2007, dated 2014).

Settings: pH 7 at 20° C.

**Q.** Which solubility in water does the source give for O=C(O)c1c(Cl)ccc2cc(Cl)cnc12 [Quinclorac, 3,7-dichloro-8-quinolinecarboxylic acid] here?
**A.** Its solubility in water is 0.065 mg/kg.
